Measurements taken from patent US10508089B2, “Use of N-(1,3,4-Oxadiazol-2-yl)arylcarboxamides or their salts for controlling unwanted plants in areas of transgenic crop plants being tolerant to HPPD inhibitor herbicides” (BASF SE, priority 2014, dated 2019).
Where two headings read alike, the source gives them in different places.

Key:
[1] = tested on: T3 cotton events expressing PfHPPD-Evo41; format: in vivo; settings: 200 g Al/ha, post-emergence V3, scored after 14 days, field
[2] = tested on: T2 soybean events expressing PfHPPD-Evo41; format: in vivo; settings: 14 days after treatment

In the case of Cc1nnc(NC(=O)c2ccc(C(F)(F)F)c(S(C)(=O)=O)c2C)o1 [Compound 2-145], the “Average maximum phytotoxicity scoring” value ([1]; cotton event Evo41/1) was 3 (“3” = high tolerance; 0%-10% damaged leaf area), the “Average maximum phytotoxicity scoring” value ([1]; cotton event Evo41/2) was 3 (“3” = high tolerance; 0%-10% damaged leaf area) and the “Average maximum phytotoxicity scoring” value ([1]; cotton event Evo41/3) was 3 (“3” = high tolerance; 0%-10% damaged leaf area). The “Average maximum phytotoxicity scoring” value ([1]; cotton event Evo41/4) was 3 (“3” = high tolerance; 0%-10% damaged leaf area), the “Average maximum phytotoxicity scoring” value ([1]; cotton event Evo41/5) was 3 (“3” = high tolerance; 0%-10% damaged leaf area) and the “Average maximum phytotoxicity scoring” value ([1]; cotton event Evo41/6) was 3 (“3” = high tolerance; 0%-10% damaged leaf area). The “Average maximum phytotoxicity scoring” value ([1]; cotton event Evo41/7) was 3 (“3” = high tolerance; 0%-10% damaged leaf area), the “Average maximum phytotoxicity scoring” value ([1]; cotton event Evo41/8) was 3 (“3” = high tolerance; 0%-10% damaged leaf area) and the “Average maximum phytotoxicity scoring” value ([1]; cotton event Evo41/9) was 3 (“3” = high tolerance; 0%-10% damaged leaf area). The “Average maximum phytotoxicity scoring” value ([1]; cotton event Evo41/10) was 3 (“3” = high tolerance; 0%-10% damaged leaf area), the “Average maximum phytotoxicity scoring” value ([1]; cotton event Evo41/11) was 3 (“3” = high tolerance; 0%-10% damaged leaf area) and the “Average maximum phytotoxicity scoring” value ([1]; cotton event Evo41/12) was 2 (“2” = good tolerance; 11%-15% damaged leaf area). For the same compound, the “Average maximum phytotoxicity scoring” value ([1]; cotton event Evo41/13) was 3 (“3” = high tolerance; 0%-10% damaged leaf area), the “Average maximum phytotoxicity scoring” value ([1]; cotton event Evo41/14) was 3 (“3” = high tolerance; 0%-10% damaged leaf area) and the “Average maximum phytotoxicity scoring” value ([1]; cotton event Evo41/15) was 3 (“3” = high tolerance; 0%-10% damaged leaf area). The “Number of plants categorized herbicide tolerance “0” (marginal; 41%-100% damaged leaf area)” value (“Number … (marginal; 41%-100% damaged leaf area)” for short) ([2]; 6.25 g Al/ha, total 12) was 0, the “Number of plants categorized herbicide tolerance “1” (moderate; 26%-40% damaged leaf area)” value (shortened to “Number … (moderate; 26%-40% damaged leaf area)”) ([2]; 6.25 g Al/ha, total 12) was 1 and the “Number of plants categorized herbicide tolerance “2” (good; 16%-25% damaged leaf area)” value (shortened to “Number … (good; 16%-25% damaged leaf area)”) ([2]; 6.25 g Al/ha, total 12) was 0. For the same compound, the “Number of plants categorized herbicide tolerance “3” (high; less than or equal to 15% damaged leaf area)” value ([2]; 6.25 g Al/ha, total 12) was 11, the “Number … (marginal; 41%-100% damaged leaf area)” value ([2]; 25 g Al/ha, total 16) was 0 and the “Number … (moderate; 26%-40% damaged leaf area)” value ([2]; 25 g Al/ha, total 16) was 0. For the same compound, the “Number … (good; 16%-25% damaged leaf area)” value ([2]; 25 g Al/ha, total 16) was 0, the “Number of plants categorized herbicide tolerance “3” (high; less than or equal to 15% damaged leaf area)” value ([2]; 25 g Al/ha, total 16) was 16 and the “Number … (marginal; 41%-100% damaged leaf area)” value ([2]; 50 g Al/ha, total 4) was 0. The “Number … (moderate; 26%-40% damaged leaf area)” value ([2]; 50 g Al/ha, total 4) was 0, the “Number … (good; 16%-25% damaged leaf area)” value ([2]; 50 g Al/ha, total 4) was 2 and the “Number of plants categorized herbicide tolerance “3” (high; less than or equal to 15% damaged leaf area)” value ([2]; 50 g Al/ha, total 4) was 2. The “Number … (marginal; 41%-100% damaged leaf area)” value ([2]; 75 g Al/ha, total 4) was 0, the “Number … (moderate; 26%-40% damaged leaf area)” value ([2]; 75 g Al/ha, total 4) was 0 and the “Number … (good; 16%-25% damaged leaf area)” value ([2]; 75 g Al/ha, total 4) was 0. For the same compound, the “Number of plants categorized herbicide tolerance “3” (high; less than or equal to 15% damaged leaf area)” value ([2]; 75 g Al/ha, total 4) was 4.
